Reduced activity and KI data for 4 compounds are collected here from article PMC12177922, “In Vivo Ribosome-Amplified MetaBOlism, RAMBO, Effect Observed by Real Time Pulse Chase, RTPC, NMR Spectroscopy” (Biochemistry, 2025).

Format in all cases: biochemical
The target in assay [1] is T1, PYK-F (Escherichia coli, UniProt P0AD61).
T1 construct: gene pykF; full length, 470 residues, 50 kDa monomer, N-terminal 6xHis tag kept, pET-28a(+), expressed in E. coli BL21(DE3), Ni-NTA purified, homotetramer
The assay is described as follows: direct 1H NMR kinetic assay (pyruvate methyl peak). To be noted: 2 mM PEP, 4 mM ADP, pH 7.5, 10 °C, no ribosomes; 0-8x of 50 μg/mL.

The target in assay [2] is T2, LDH-A (Escherichia coli, UniProt P52643, form not given, species not given).
T2 construct: gene ldhA; commercial recombinant enzyme (Sigma-Aldrich); authors doubt its source; printed P33232 is the quinone-dependent LldD, not an NADH-dependent LDH, so identity unresolved
The assay is described as follows: direct 1H NMR kinetic assay (lactate methyl peak). To be noted: substrate inhibition; 0.5 mM NADH, 0.04 nM enzyme, pH 7.5, 10 mM sodium phosphate, 50 mM KCl, 10 mM MgCl2, 10 °C, no ribosomes.

In assay [3] the target is T3, PFK-A (Geobacillus stearothermophilus, UniProt P00512).
T3 construct: gene pfkA; commercial lyophilized enzyme (Sigma-Aldrich)
Kind of assay: direct 1H NMR kinetic assay (FBP peak). To be noted: substrate inhibition; 1 mM F6P, 1 nM enzyme, pH 7.5, 10 mM sodium phosphate, 50 mM KCl, 10 mM MgCl2, 10 °C, no ribosomes.

On to `CN[C@@H]1[C@H](O[C@H]2[C@H](O[C@H]3[C@H](O)[C@@H](O)[C@H](N=C(N)N)[C@@H](O)[C@@H]3N=C(N)N)O[C@@H](C)[C@]2(O)C=O)O[C@@H](CO)[C@H](O)[C@H]1O` [Str], for which the reduced activity result in assay [1] was “Ths, Kan and Str reduced PYK-F activity in both the presence and absence of ribosomes”.

Consider `NC[C@H]1O[C@H](O[C@H]2[C@H](O)[C@@H](O[C@H]3O[C@H](CO)[C@@H](O)[C@H](N)[C@H]3O)[C@H](N)C[C@@H]2N)[C@H](O)[C@@H](O)[C@@H]1O` [Kan], for which, in assay [1], the reduced activity entry was “Ths, Kan and Str reduced PYK-F activity in both the presence and absence of ribosomes”.

The compound `CC(=O)C(=O)O` [PYR] came in with a KI in assay [2] of 0.495 ± 0.074 mM.

In the case of `Nc1ncnc2c1ncn2[C@@H]1O[C@H](COP(=O)(O)OP(=O)(O)OP(=O)(O)O)[C@@H](O)[C@H]1O` [ATP], the KI in assay [3] stood at 5.6 ± 1.2 mM.
